18 molecules from US20240383875A1, “Benzimidazole Pyridine Derivatives” (Hoffmann-La Roche Inc., priority 2022, published 2024) can be followed below.

pIC50: −log10 of the molar value.

Common to all, as to format: biochemical
Assay [1] concerns the target SIK1 (Homo sapiens, UniProt P57059). In words: Enzymatic activity assay SIK1, RapidFire mass spectrometry (phosphorylation of CHK-peptide). The following applies: RapidFire MS, inhibition of SIK1; read-out: SIK1 RF IC50. The protocol: (§1) Assay description SIK1-3, RapidFire:
(§2) In the presence of SIK2 (resp. SIK1 or SIK3) and ATP the CHK-peptide ([…] with C-terminal arginine amide modification) were phosphorylated at one of the four feasible serine's. Only one phosphorylation is observed under the assay conditions. 60 nl of each compound dilution series (12 point; dilution factor 3, generally 30 μM to 170 pM) in DMSO were transferred by acoustic dispensing to the assay plate and 30 min pre-incubated (ambient temperature) after the addition of 5 μl SIK1 (5 nM) resp. 5 μl SIK2 (0.5 nM) or 7 μl SIK3 (1.5 nM) in assay-buffer (12.5 mM HEPES (pH 7.0), 10 mM magnesium acetate, 0.005% BSA). 10 μM CHK-peptide solution and 5 μl 100 μM ATP for SIK1 & SIK2 resp. 3 μl for SIK3 in assay-buffer were added and incubated ambient for 45 min. 40 μl 0.125% formic acid in water were added to quench the reaction. RapidFire (RF) Mass Spectrometry was utilized for data generation as described below. The multiple charged species (3-5 charges) for the phosphorylated and non-phosphorylated form measured by MRM (Multiple Reaction Monitoring; API5000 or 6500+) or EIC (Extracted Ion Current; QToF) were summed up and the ratio calculated (sum phosphorylated species/sum all species) for data evaluation. Normalization was performed by Genedata software based on the non-inhibition control DMSO and the commercially available SIK inhibitor @ 1 μM YKL-05-099 (CAS number 1936529-65-5). The results of the assay are expressed in half-maximal inhibitory concentrations (IC50s) and are summarized below in Table 1.
(§3) Samples were aspirated by vacuum for max. 600 ms and loaded to C4-cartridge (Agilent; #G9203A) for 3000 ms@1.5 ml/min with 0.1% formic acid in water. Afterwards samples were transferred to the APT5000 (APT6500+) or QToF mass spectrometer for 4000 ms@1.25 ml/min with 90% acetonitrile; 10% water; 0.007% TFA; 0.093 formic acid. The cartridge was reconditioned for additional 500 ms with 0.1% formic acid in water
(§4) All MS analyses using the following MS-setup in MRM mode: Electrospray positive; Ion Spray Voltage: 4000V; Temperature: 550° C.; Collision Gas: 5; Curtain Gas: 15; Gas1: 40; Gas 2: 42; EP: 10
(§5) MS-Setup Agilent QToF 6545
(§6) All MS analyses using the following MS-setup in Mode MS: Dual AJS Electrospray positive; VCap: 3000V; Drying & Sheath gas: 340° C.@81/min; Nebulizer: 60 psig; Nozzle Voltage: 2000V; Fragmentor: 130V; Skimmer: 35V; Oct1 RF Vpp: 700V; Ref masses on@5spectra/s

For assay [2], the target named is SIK2 (Homo sapiens, UniProt Q9H0K1). In words: Enzymatic activity assay SIK2, RapidFire mass spectrometry (phosphorylation of CHK-peptide). The following applies: RapidFire MS, inhibition of SIK2; read-out: SIK2 RF IC50. The protocol: as §1
Chain of SIK2 (Q9H0K1 whole entry): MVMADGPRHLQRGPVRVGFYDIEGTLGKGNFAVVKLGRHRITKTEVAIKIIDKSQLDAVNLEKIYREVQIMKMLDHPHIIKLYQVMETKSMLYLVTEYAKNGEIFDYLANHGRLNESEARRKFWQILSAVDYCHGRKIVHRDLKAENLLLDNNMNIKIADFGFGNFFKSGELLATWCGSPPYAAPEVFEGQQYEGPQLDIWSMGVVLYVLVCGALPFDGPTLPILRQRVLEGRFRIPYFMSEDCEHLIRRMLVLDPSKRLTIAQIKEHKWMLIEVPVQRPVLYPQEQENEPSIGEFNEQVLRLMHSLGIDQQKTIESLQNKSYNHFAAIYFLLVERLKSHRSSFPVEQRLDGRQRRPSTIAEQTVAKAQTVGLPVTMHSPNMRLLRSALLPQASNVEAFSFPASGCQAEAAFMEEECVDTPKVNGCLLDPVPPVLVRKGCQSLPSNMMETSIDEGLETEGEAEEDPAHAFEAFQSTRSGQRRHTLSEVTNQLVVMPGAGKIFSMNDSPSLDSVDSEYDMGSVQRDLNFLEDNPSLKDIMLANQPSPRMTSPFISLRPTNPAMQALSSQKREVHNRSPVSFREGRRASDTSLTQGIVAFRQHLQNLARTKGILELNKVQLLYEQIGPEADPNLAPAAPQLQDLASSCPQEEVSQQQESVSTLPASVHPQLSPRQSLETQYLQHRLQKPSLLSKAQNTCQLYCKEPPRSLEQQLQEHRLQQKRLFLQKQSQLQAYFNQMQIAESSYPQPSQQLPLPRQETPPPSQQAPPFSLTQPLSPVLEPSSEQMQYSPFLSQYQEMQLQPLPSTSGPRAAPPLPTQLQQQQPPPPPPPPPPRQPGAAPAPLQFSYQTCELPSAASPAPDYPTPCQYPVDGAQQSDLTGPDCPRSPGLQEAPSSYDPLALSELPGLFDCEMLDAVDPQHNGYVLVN
as §2, with “Only one phosphorylation is observed under the assay conditions. 60 nl of each compound dilution series (12 point; dilution factor 3, generally 30 μM to 170 pM) in DMSO were transferred by acoustic dispensing to the assay plate and 30 min pre-incubated (ambient temperature) after the addition of 5 μl SIK1 (5 nM) resp.” left out, “1936529-65-5).” for “1936529-65-5). The results of the assay are expressed in half-maximal inhibitory concentrations (IC50s) and are summarized below in Table 1.”
as §3, §4, §5, §6

Assay [3] deals with SIK3 (Homo sapiens, UniProt Q9Y2K2). In words: Enzymatic activity assay SIK3, RapidFire mass spectrometry (phosphorylation of CHK-peptide). The following applies: RapidFire MS, inhibition of SIK3; read-out: SIK3 RF IC50. On the procedure: as §1, §2, §3, §4, §5, §6
Chain of SIK3 (Q9Y2K2 whole entry): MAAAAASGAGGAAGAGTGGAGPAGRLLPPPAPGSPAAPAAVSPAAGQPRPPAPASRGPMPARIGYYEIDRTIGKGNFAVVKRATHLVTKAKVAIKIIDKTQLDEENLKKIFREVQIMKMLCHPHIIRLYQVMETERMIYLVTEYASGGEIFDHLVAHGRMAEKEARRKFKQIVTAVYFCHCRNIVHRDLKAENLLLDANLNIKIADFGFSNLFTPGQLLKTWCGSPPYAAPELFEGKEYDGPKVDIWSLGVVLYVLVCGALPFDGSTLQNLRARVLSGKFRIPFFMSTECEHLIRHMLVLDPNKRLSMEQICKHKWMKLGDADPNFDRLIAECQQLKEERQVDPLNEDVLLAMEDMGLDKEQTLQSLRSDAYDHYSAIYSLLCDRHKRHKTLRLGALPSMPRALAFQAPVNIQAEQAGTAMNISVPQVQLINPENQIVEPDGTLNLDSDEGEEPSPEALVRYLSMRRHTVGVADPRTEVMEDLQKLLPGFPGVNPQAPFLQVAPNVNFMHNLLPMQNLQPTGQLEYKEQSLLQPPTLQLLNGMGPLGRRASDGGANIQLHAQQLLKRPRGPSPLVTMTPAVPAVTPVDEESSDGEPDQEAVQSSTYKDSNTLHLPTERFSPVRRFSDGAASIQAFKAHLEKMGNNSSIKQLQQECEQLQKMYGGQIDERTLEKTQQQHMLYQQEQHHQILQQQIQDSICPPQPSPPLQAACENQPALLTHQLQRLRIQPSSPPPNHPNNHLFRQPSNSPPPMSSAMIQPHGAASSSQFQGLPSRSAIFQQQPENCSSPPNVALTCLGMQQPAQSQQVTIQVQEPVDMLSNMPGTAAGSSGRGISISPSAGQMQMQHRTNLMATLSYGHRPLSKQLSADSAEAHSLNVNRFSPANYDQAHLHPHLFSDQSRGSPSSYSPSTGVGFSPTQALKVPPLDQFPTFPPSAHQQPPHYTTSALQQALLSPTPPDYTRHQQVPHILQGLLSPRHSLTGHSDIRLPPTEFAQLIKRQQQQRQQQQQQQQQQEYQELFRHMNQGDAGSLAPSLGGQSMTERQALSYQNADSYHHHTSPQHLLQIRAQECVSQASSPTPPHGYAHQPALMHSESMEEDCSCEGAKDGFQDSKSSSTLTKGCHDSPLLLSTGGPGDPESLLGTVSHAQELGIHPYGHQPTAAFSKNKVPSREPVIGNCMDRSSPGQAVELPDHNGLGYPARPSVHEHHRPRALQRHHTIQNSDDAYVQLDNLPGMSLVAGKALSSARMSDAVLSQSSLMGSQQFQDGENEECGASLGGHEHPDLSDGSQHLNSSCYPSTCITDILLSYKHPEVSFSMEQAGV

Chain of SIK1 (P57059 whole entry): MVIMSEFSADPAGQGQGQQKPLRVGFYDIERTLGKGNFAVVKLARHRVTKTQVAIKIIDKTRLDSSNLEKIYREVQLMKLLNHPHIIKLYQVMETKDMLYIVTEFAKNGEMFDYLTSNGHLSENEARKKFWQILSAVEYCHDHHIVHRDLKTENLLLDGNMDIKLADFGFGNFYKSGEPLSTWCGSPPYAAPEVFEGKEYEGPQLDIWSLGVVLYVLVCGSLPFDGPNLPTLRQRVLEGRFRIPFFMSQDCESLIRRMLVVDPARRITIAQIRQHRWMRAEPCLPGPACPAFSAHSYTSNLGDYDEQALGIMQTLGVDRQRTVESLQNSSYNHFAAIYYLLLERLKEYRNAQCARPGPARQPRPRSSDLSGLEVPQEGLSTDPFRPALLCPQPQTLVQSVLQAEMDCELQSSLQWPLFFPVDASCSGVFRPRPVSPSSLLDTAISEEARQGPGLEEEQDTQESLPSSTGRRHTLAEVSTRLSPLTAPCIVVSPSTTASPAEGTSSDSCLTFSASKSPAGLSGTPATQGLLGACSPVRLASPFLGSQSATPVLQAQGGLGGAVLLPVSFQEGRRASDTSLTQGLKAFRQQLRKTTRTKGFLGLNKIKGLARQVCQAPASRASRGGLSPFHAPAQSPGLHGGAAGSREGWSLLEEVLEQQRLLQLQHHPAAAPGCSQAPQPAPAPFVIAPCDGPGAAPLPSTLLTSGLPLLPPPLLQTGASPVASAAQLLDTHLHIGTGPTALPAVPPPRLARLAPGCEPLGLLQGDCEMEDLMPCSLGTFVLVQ

The term pIC50 denotes the IC50 on a negative log10 scale, so that one unit is a factor of ten. `Cc1cc(C#N)nn1-c1nc(-n2cnc3cc(N4CCN(C5COC5)CC4)ccc32)ccc1C(C)O` (stereo not drawn) [Example 67, 1-[3-(1-Hydroxyethyl)-6-[5-[4-(oxetan-3-yl)piperazin-1-yl]benzimidazol-1-yl]-2-pyridyl]-5-methyl-pyrazole-3-carbonitrile]: the pIC50 was 6.12 in assay [1], 6.88 in assay [2] and 7.01 in assay [3].

With `Cc1cc(C#N)nn1-c1nc(-n2cnc3cc(OCCN4CCOCC4)ccc32)ccc1C(C)O` (stereo not drawn) [Example 68, 1-[3-(1-Hydroxyethyl)-6-[5-(2-morpholinoethoxy)benzimidazol-1-yl]-2-pyridyl]-5-methyl-pyrazole-3-carbonitrile], the pIC50 in assay [1] was 6.75; in assay [2] it was 7.56; in assay [3], 7.53.

As to `Cc1cc(C#N)nn1-c1nc(-n2cnc3cc(Nc4cnn(C5COC5)c4)ccc32)ccc1C(C)O` (stereo not drawn) [Example 71, 1-[3-(1-Hydroxyethyl)-6-[5-[[1-(oxetan-3-yl)pyrazol-4-yl]amino]benzimidazol-1-yl]-2-pyridyl]-5-methyl-pyrazole-3-carbonitrile], the pIC50 in assay [1] is 8.30; in assay [2], 8.85; in assay [3], 8.66.

Turning to `Cc1cc(C#N)nn1-c1nc(-n2cnc3cc(Nc4cnn(C5CNC5)c4)ccc32)ccc1C(C)O` (stereo not drawn) [Example 72, 1-[6-[5-[[1-(Azetidin-3-yl)pyrazol-4-yl]amino]benzimidazol-1-yl]-3-(1-hydroxyethyl)-2-pyridyl]-5-methyl-pyrazole-3-carbonitrile], the pIC50 is 8.30 in assay [1], 9.00 in assay [2] and 8.68 in assay [3].

Take `Cc1ccc(Oc2ccc3ncn(-c4ccc(C(C)O)c(-n5nc(C#N)cc5C)n4)c3c2)nn1` (stereo not drawn) [Example 74, 1-[3-(1-Hydroxyethyl)-6-[6-(6-methylpyridazin-3-yl)oxybenzimidazol-1-yl]-2-pyridyl]-5-methyl-pyrazole-3-carbonitrile]: the pIC50 in assay [1] is 7.35; in assay [2], 7.44; in assay [3], 6.72.

Consider `Cc1ccc(Oc2ccc3c(c2)ncn3-c2ccc(C(C)O)c(-n3nc(C#N)cc3C)n2)nn1` (stereo not drawn) [Example 75, 1-[3-(1-Hydroxyethyl)-6-[5-(6-methylpyridazin-3-yl)oxybenzimidazol-1-yl]-2-pyridyl]-5-methyl-pyrazole-3-carbonitrile], for which the pIC50 in assay [1] is 5.84; in assay [2] it was 7.42; in assay [3], 8.20.

On to `Cc1ccc(Nc2ccc3c(c2)ncn3-c2ccc(C(C)O)c(-c3c(C#N)cnn3C)n2)nn1` (stereo not drawn) [Example 76, 5-[3-(1-Hydroxyethyl)-6-[5-[(6-methylpyridazin-3-yl)amino]benzimidazol-1-yl]-2-pyridyl]-1-methyl-pyrazole-4-carbonitrile], for which the pIC50 is 5.13 in assay [1], 6.49 in assay [2] and 7.18 in assay [3].

Take `Cc1cc(C#N)nn1-c1nc(-n2cnc3cc(N4CC[C@@H](O)C4)ccc32)ccc1C(C)O` (stereo partly drawn) [Example 77, 1-[3-(1-Hydroxyethyl)-6-[5-[(3R)-3-hydroxypyrrolidin-1-yl]benzimidazol-1-yl]-2-pyridyl]-5-methyl-pyrazole-3-carbonitrile; formic acid]: the pIC50 in assay [1] is 7.55; in assay [2], 8.00; in assay [3], 7.80.

Consider `Cc1cc(C#N)nn1-c1nc(-n2cnc3cc(N4CC[C@H](O)C4)ccc32)ccc1C(C)O` (stereo partly drawn) [Example 78, 1-[3-(1-hydroxyethyl)-6-[5-[(3S)-3-hydroxypyrrolidin-1-yl]benzimidazol-1-yl]-2-pyridyl]-5-methyl-pyrazole-3-carbonitrile; formic acid], for which the results for the pIC50 in assay [1], in assay [2] and in assay [3] were 7.48, 7.94 and 7.69, respectively.

As to `Cc1ccc(Nc2ccc3c(c2)ncn3-c2ccc(C(C)O)c(-n3nc(C#N)cc3C)n2)cn1` (stereo not drawn) [Example 81, 1-[3-(1-Hydroxyethyl)-6-[5-[(6-methyl-3-pyridyl)amino]benzimidazol-1-yl]-2-pyridyl]-5-methyl-pyrazole-3-carbonitrile], the pIC50 in assay [1] was 8.05; in assay [2], 8.64; in assay [3], 9.10.

As to `Cc1cnc(Nc2ccc3c(c2)ncn3-c2ccc(C(C)O)c(-n3nc(C#N)cc3C)n2)cn1` (stereo not drawn) [Example 82, 1-[3-(1-Hydroxyethyl)-6-[5-[(5-methylpyrazin-2-yl)amino]benzimidazol-1-yl]-2-pyridyl]-5-methyl-pyrazole-3-carbonitrile], the pIC50 in assay [1] was 8.30; in assay [2] it was 8.66; in assay [3] it was 8.62.

Consider `Cc1cnc(Nc2ccc3c(c2)ncn3-c2ccc(C(C)O)c(-n3nc(C#N)cc3C)n2)nc1` (stereo not drawn) [Example 83, 1-[3-(1-Hydroxyethyl)-6-[5-[(5-methylpyrimidin-2-yl)amino]benzimidazol-1-yl]-2-pyridyl]-5-methyl-pyrazole-3-carbonitrile], for which the values for the pIC50 in assay [1], in assay [2] and in assay [3] were 8.70, 8.82 and 8.74, respectively.

For the molecule `Cc1ccc(Nc2ccc3c(c2)ncn3-c2ccc(C(C)O)c(-n3nc(C#N)cc3C)n2)nc1` (stereo not drawn) [Example 84, 1-[3-(1-hydroxyethyl)-6-[5-[(5-methyl-2-pyridyl)amino]benzimidazol-1-yl]-2-pyridyl]-5-methyl-pyrazole-3-carbonitrile], the pIC50 in assay [1] is 8.15; in assay [2] it was 8.28; in assay [3] it was 8.68.

For the molecule `Cc1ccc(Nc2ccc3c(c2)ncn3-c2ccc(C(C)O)c(N3CCCS3(=O)=O)n2)nn1` (stereo not drawn) [Example 85, 1-[2-(1,1-dioxo-1,2-thiazolidin-2-yl)-6-[5-[(6-methylpyridazin-3-yl)amino]benzimidazol-1-yl]-3-pyridyl]ethanol], the pIC50 is 5.97 in assay [1], 6.09 in assay [2] and 5.72 in assay [3].

For the molecule `Cc1ncc(Nc2ccc3c(c2)ncn3-c2ccc(C(C)O)c(-n3nc(C#N)cc3C)n2)cn1` (stereo not drawn) [Example 86, 1-[3-(1-Hydroxyethyl)-6-[5-[(2-methylpyrimidin-5-yl)amino]benzimidazol-1-yl]-2-pyridyl]-5-methyl-pyrazole-3-carbonitrile], the pIC50 in assay [1] is 7.21; in assay [2], 8.22; in assay [3] it was 8.82.

With `Cc1cc(C#N)nn1-c1nc(-n2cnc3cc(Nc4ccnnc4)ccc32)ccc1C(C)O` (stereo not drawn) [Example 87, 1-[3-(1-Hydroxyethyl)-6-[5-(pyridazin-4-ylamino)benzimidazol-1-yl]-2-pyridyl]-5-methyl-pyrazole-3-carbonitrile], the pIC50 was 7.66 in assay [1], 8.02 in assay [2] and 8.54 in assay [3].

As for `COc1ccc(Nc2ccc3c(c2)ncn3-c2ccc(C(C)O)c(-n3nc(C#N)cc3C)n2)nn1` (stereo not drawn) [Example 88, 1-[3-(1-Hydroxyethyl)-6-[5-[(6-methoxypyridazin-3-yl)amino]benzimidazol-1-yl]-2-pyridyl]-5-methyl-pyrazole-3-carbonitrile], the pIC50 was 7.21 in assay [1], 8.66 in assay [2] and 9.10 in assay [3].

Turning to `Cc1cc(C#N)nn1-c1nc(-n2cnc3cc(Nc4cccnn4)ccc32)ccc1C(C)O` (stereo not drawn) [Example 89, 1-[3-(1-Hydroxyethyl)-6-[5-(pyridazin-3-ylamino)benzimidazol-1-yl]-2-pyridyl]-5-methyl-pyrazole-3-carbonitrile], the pIC50 in assay [1] is 7.02; in assay [2] it was 8.92; in assay [3] it was 9.15.
